pEC50: −log10 of the molar value.
What was measured:
Format in all cases: cell-based
human adipocytes [1] = assay: Intracellular Ca2+ ([Ca2+]i) by fura-2 fluorometry in isolated human adipocytes
Description: FIG. 2. Glibenclamide stimulation of [Ca^2+]i in isolated human adipocyte. [Ca^2+]i in isolated human adipocytes was determined fluorometrically as previously described (4,7). Briefly, the human adipocytes isolated as described above were incubated in DMEM medium overnight for cell recovery. Prior to [Ca^2+]i measurement, adipocytes were pre-incubated in serum-free medium for 2 hrs, rinsed with HBSS solution containing the following components in mM: NaCl 138, CaCl2 1.8, MgSO4 0.8, NaH2PO4 0.9, NaHCO3 4, glucose 20, glutamine 6, HEPES 20 and BSA 1%. Cells were then loaded with fura-2 acetoxymethyl ester (10 μM) in the same buffer for 45 min at 37° C. in the dark with continuous shaking. To remove extracellular dye, cells were rinsed with HBSS for 3 times and resuspended in this solution at a concentration of 2×10^5 cells/ml. [Ca^2+]i was measured using dual excitation (340 and 380 nm) and single emission (510 nm) fluorometry. Following the establishment of stable baseline, the response to glibenclamide (10 and 20 μM) was determined. Digitonin (25 μM) and Tris/EGTA (100 mM) were used to measure maximal and minimal fluorescence to calibrate the signals, and final [Ca^2+]i was then calculated by the equation of Grynkiewicz et al. (17). […] Glibenclamide (Glib) was added at time designated by the arrow. B. The dose-responsive effect of glibenclamide on [Ca^2+]i in human adipocytes. Glibenclamide was added at 10 and 20 µM at the indicated times. *p<0.05 vs. Control, **p<0.05 vs. 10 μM glibenclamide.
The functionality of the SUR1 receptor was determined with respect to calcium mobilization and small molecule effects. [Ca^2+]i response was measured fluorometrically in isolated human adipocytes using a standard method (2,16). Briefly, isolated human adipocytes were incubated in DMEM or any other suitable medium such as Ham's F-10, Modified Eagle's media plus 5-10% fetal calf serum overnight for cell recovery. Prior to [Ca^2+]i measurement, adipocytes were pre-incubated in serum-free medium for 2 hrs, rinsed with HBSS solution containing the following components in mM: NaCl 138, CaCl2 1.8, MgSO4 0.8, NaH2PO4 0.9, NaHCO3 4, glucose 20, glutamine 6, HEPES 20 and BSA 1%. Cells were then loaded with fura-2 acetoxymethyl ester (10 μM) in the same buffer for 30-60 min at 37° C. in dark with continuous shaking. To remove extracellular dye, cells were rinsed with HBSS for three times and resuspended in this solution at a concentration of 1-10×10^5 cells/ml. [Ca^2+]i was measured using dual excitation (340 and 380 nm) and single emission (510 nm) fluorometry. Following the establishment of stable baseline, the response to a SUR agonist such as glibenclamide (1-20 μM) can be determined. Digitonin (25 μM) and Tris/EGTA (100 mM) were used to measure maximal and minimal fluorescence to calibrate the signals, and final [Ca^2+]i was then calculated by a known method such as described in Grynkiewicz et al (17).
Correlation of lipolysis with flux of intracellular calcium ([Ca^2+]i) concentration is then performed. [Ca^2+]i is measured in primary adipocytes. For primary adipocytes, 3 ml of cells are resuspended in 6 ml of HBSS and fura-2/AM was loaded for 80 min at 37° C. Extracellular fura-2/AM is washed three times with HBSS by centrifugation. [Ca^2+]i levels are then measured fluorometrically in suspensions using dual excitation (340 and 380 nm)/single emission (510 nm) fluorometry and [Ca^2+]i is calculated by the computer in the fluorometer. As a control, after loading fura-2/AM cells are pretreated with nitrendipine (RBI, Natick, Mass.) (30 μM, final concentration) for 10 min at 37° C.

human adipocytes [2] = assay: Lipolysis (glycerol release into the culture medium) in human adipocytes
Description: FIG. 4. The anti-lipolytic effect of glibenclamide in human adipocytes. Activation of lipolysis in adipocytes is typically measured by release of glycerol into the media. Human adipocytes were treated with 10 μM glibenclamide alone, 10 μM glibenclamide plus 10 μM diazoxide or 10 μM glibenclamide plus 30 μM nitrendipine for 48 hr. Glycerol release was determined as described (19). *p<0.01 vs. Control.
Human adipocytes were examined for changes in lipolysis regulation by measurement of glycerol release into the media. Glycerol was measured by using a standard method (19), although other techniques for measuring glycerol would be equally useful.
Human subcutaneous abdominal adipose tissue was obtained from patients undergoing elective abdominal cosmetic surgery, although other types of adipose tissue, such as mesenteric, retroperitoneal, perirenal, or omental may be useful in identifying these compounds. Preadipocytes are isolated by collagenase treatment of the tissue and cultured adipocytes prepared as described (patent filed; Jan. 29, 1999; Ser. No. 09/240,029). Agents that regulate calcium flux in adipocytes as noted above can mediate lipolysis. Human adipocytes may be cultured in multi-well plates with different treatments between 1 hour or 24 hours as indicated, and glycerol release into the culture medium was determined as an indicator for lipolysis using a one-step enzymatic fluorometric method. The media collected from 1 hr treatments were used directly for glycerol measurements. For 24 hr treatments, media were removed, and cells were washed with Hank's Balanced Salt Solution and incubated in fresh medium for a further 10-60 min. This media were then used for glycerol measurements for 24 hr treatments.
We next investigated the role of adipocyte SUR1 on lipolysis. Lipolysis was measured as follows. Human adipocytes were treated as described below and glycerol release into the culture medium was determined as an indicator for lipolysis using a one step enzymatic fluorometric method (19). After treatment medium was obtained, HClO4 was added for deproteinization.
Agents that regulate calcium flux in adipocytes as noted above can mediate lipolysis. Human adipocytes (1 mL cells/well) were incubated in 24-well plates with different treatments for either 1 hour or 24 hours as indicated, and glycerol release into the culture medium was determined as an indicator for lipolysis using a one-step enzymatic fluorometric method. The media collected from 1 hr treatments were used directly for glycerol measurements. For 24 hr treatments, media were removed, and cells were washed with Hank's Balanced Salt Solution and incubated in fresh medium for a further 30 min. This media were then used for glycerol measurements for 24 hr treatments. After medium was collected, HClO4 was added to give a final concentration of 3% for deproteinization. The sample was centrifuged at 9000×g for 20 min. The supernatant was then collected and neutralized with 10N NaOH. Samples were stored at −80° C. prior to glycerol assay. Cells were collected, homogenized and stored at −80° C. for subsequent total protein correction by a modified Bradford method using Coomassie Blue dye (PIERCE, Rockford, Ill.).

[3] = system: FAS activity in human adipocytes; assay: Fatty acid synthase (FAS) activity in human adipocytes; conditions: for fatty acid synthase activity: control 1.93±0.24

pEC50 (human adipocytes [1]; Adipocyte, human adipocytes, read-out: EC50 for increase in intracellular free calcium): ~6.00
SMILES: COc1ccc(Cl)cc1C(=O)NCCc1ccc(S(=O)(=O)NC(=O)NC2CCCCC2)cc1 [glibenclamide]
[Ca2+]i response (human adipocytes [1]; 20 µM glibenclamide (FIG. 2A)): increase in intracellular calcium | [Ca2+]i response (human adipocytes [1]; 1-20 μM, dose-dependent manner): sustained increases | maximum response of intracellular free calcium (human adipocytes [1]; graded doses, over a baseline of 190 nM): 388 ± 72 nM | lipolysis (glycerol release) (human adipocytes [2]; 10 μM glibenclamide, 48 hr, control 0.193±0.050): 0.061±0.009 NADH μM/mg protein | inhibition at 10 µM (human adipocytes [2]; Homo sapiens, Adipocyte, 10 μM glibenclamide, 48 hr): 68% | inhibition in lipolysis (human adipocytes [2]; SUR agonists such as glibenclamide, general description): 25-70% | fatty acid synthase activity ([3]; 2 μM glibenclamide): 7.90±0.4 nmol/min/mg protein | increase in adipocyte FAS activity ([3]; 10 μM glibenclamide, 48 hr): 67% | FAS activity ([3]; 10 μM glibenclamide, 48 hr, control 0.692±0.052): 1.154±0.010 NADPH nM/min/mg protein | fatty acid synthase activity ([3]; 10 μM glibenclamide): 12.8 ± 0.6 nmol/min/mg | increased FAS activity from basal levels ([3]; SUR agonist such as glibenclamide, general description): 50%-500%

Reference: patent US6569633B1, “Modulation of the sulfonylurea receptor and calcium in adipocytes for treatment of obesity/diabetes” (Artecel Science, Inc., priority 1998, dated 2003)
